Assay results as given in ChEMBL document CHEMBL3039007, “Structure-based identification of OATP1B1/3 inhibitors” (Mol Pharmacol, 2013).
Residues, ends and D or L forms follow the SMILES beside them.

What was measured:
[1] = target: T1, Solute carrier organic anion transporter family member 1B3 (Homo sapiens, UniProt Q9NPD5); conditions: chinese hamster, cho, 10 µM
T1 sequence (Q9NPD5 whole entry): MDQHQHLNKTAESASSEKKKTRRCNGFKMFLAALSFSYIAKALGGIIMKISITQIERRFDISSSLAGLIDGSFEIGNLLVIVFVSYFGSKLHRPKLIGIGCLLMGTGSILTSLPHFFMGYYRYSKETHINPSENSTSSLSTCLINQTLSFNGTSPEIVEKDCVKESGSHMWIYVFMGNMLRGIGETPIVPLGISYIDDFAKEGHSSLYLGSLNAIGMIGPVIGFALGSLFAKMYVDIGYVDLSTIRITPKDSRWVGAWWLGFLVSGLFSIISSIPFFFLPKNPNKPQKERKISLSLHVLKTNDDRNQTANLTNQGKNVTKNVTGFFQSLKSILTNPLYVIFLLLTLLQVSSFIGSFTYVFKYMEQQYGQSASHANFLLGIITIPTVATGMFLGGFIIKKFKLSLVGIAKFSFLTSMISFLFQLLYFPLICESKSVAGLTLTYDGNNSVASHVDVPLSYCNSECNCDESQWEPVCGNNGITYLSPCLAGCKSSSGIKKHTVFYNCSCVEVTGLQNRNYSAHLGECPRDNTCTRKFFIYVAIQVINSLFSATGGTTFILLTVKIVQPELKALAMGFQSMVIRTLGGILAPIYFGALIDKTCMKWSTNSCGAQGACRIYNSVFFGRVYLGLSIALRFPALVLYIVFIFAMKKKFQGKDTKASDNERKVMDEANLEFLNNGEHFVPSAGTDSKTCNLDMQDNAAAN

[2] = target: T2, Solute carrier organic anion transporter family member 1B1 (Homo sapiens, UniProt Q9Y6L6); conditions: chinese hamster, cho, 10 µM
T2 sequence (Q9Y6L6 whole entry): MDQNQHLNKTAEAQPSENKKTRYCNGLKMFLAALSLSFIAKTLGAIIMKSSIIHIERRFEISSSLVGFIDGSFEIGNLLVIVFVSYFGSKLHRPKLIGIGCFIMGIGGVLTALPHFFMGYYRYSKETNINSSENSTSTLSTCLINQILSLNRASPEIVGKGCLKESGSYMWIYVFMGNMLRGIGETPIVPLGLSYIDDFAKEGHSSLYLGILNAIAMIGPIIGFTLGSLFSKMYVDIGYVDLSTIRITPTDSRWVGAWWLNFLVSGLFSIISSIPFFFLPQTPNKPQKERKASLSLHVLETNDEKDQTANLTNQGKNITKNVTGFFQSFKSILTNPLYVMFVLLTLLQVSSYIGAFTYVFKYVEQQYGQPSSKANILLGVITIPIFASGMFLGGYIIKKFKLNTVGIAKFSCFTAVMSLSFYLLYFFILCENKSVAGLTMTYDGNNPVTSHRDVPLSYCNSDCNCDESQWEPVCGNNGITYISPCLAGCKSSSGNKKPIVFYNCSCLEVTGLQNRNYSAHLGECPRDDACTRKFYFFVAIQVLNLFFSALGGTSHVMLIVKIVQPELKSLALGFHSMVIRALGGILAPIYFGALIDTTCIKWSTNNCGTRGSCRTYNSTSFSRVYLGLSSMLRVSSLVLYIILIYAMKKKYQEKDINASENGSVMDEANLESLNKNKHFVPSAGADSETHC

SMILES	residual activity [1] [%]	residual activity [2] [%]
CC1(C)S[C@@H]2[C@H](N3C(=O)[C@@H](c4ccccc4)NC3(C)C)C(=O)N2[C@H]1C(=O)[O-].[K+] [HETACILLIN POTASSIUM]	89.09	81.9
COC(=O)CC1C(C)(C)C(OC(C)=O)[C@@H]2[C@@H](OC(C)=O)[C@]34O[C@@]2(O)[C@]1(C)C3CC[C@]1(C)C4=CC(=O)O[C@H]1c1ccoc1 (some centres undefined) [XYLOCARPUS A]	9.764	22.54
CC(=O)N[C@@H](CS)C(=O)O [ACETYLCYSTEINE]	89.21	82.21
Sc1nc2ccccc2s1 [2-MERCAPTOBENZOTHIAZOLE]	97.95	158.6
CC1=CC(=O)C(C(C)C)=CC1=O [THYMOQUINONE]	98.24	126.4
COc1c(Cl)c(C)c2c(c1Cl)OC(=O)c1c(C)c(Cl)c(OC)c(Cl)c1O2 [DIPLOICIN METHYL ETHER]	103.5	97.17
Cc1cc(C(C)(C)C)c(O)c(C)c1CC1=NCCN1.Cl [OXYMETAZOLINE HYDROCHLORIDE]	104.7	95.6
Nc1nccs1 [AMINOTHIAZOLE]	76.59	92.13
CN(N=O)C(=O)N[C@@H](C=O)[C@@H](O)[C@H](O)[C@H](O)CO [STREPTOZOCIN]	100.3	93.43
C=C1C(=O)O[C@@H]2C3O[C@]3(C)CC/C=C(\C)CC[C@@H]12 (some centres undefined)	114.2	140.7
C[C@@H]1O[C@@H](O[C@H]2CC[C@]3(C=O)[C@H]4CC[C@]5(C)[C@@H](C6=CC(=O)OC6)CC[C@]5(O)[C@@H]4CC[C@]3(O)C2)[C@H](O)[C@H](O)[C@H]1O [CONVALLATOXIN]	95.81	102.3
CC1=C(C(=O)O)N2C(=O)[C@@H](NC(=O)[C@H](N)c3ccccc3)[C@H]2SC1 [CEPHALEXIN ANHYDROUS]	89.2	94.03
[N-]=[N+]=CC(=O)OC[C@H](N)C(=O)O [AZASERINE]	107.6	100.4
N[C@@H](Cc1ccccc1)C(=O)N[C@@H](Cc1ccc(O)cc1)C(=O)O [PHENYLALANYLTYROSINE] (H-Phe-Tyr-OH)	68.6	78.59
O=c1cccc2n1C[C@@H]1CNC[C@H]2C1 [CYTISINICLINE]	106.2	99.71
CC(C)(O)CC[C@@H](O)[C@](C)(O)[C@H]1CC[C@@]2(O)C3=CC(=O)[C@@H]4C[C@@H](O)[C@@H](O)C[C@]4(C)[C@H]3CC[C@]12C [20-HYDROXYECDYSONE]	127.1	115
CC1(C)[C@H](O)CC(=O)[C@]2(C)[C@H]3CC[C@@]4(C)[C@H](c5ccoc5)OC(=O)[C@H]5O[C@]54[C@]3(C)C(=O)C[C@@H]12	61.45	33.49
COc1cc(C)c2c(=O)cc(-c3ccccc3)oc2c1 [METHOXYVONE]	102.8	231.1
CC(=O)Nc1nnc(S(N)(=O)=O)s1 [ACETAZOLAMIDE]	84.51	90.74
COC(=O)[C@]1(C)CC[C@]2(C)CC[C@]3(C)C4=CCc5c(cc(OC(C)=O)c(OC(C)=O)c5C)[C@]4(C)CC[C@@]3(C)[C@@H]2C1 [PRISTIMEROL DIACETATE]	83.45	94.14
COC(=O)[C@H](c1ccccc1Cl)N1CCc2sccc2C1.O=S(=O)(O)O [CLOPIDOGREL BISULFATE]	96.14	145.3

SMILES	residual activity [1] [%]	residual activity [2] [%]
COc1ccc(C[C@H](N)C(=O)N[C@H]2[C@@H](O)[C@H](n3cnc4c(N(C)C)ncnc43)O[C@@H]2CO)cc1.Cl.Cl [PUROMYCIN HYDROCHLORIDE]	116.6	95.86
CCOC(=O)[C@H](CCc1ccccc1)N[C@@H](C)C(=O)N1Cc2ccccc2C[C@H]1C(=O)O.Cl [QUINAPRIL HYDROCHLORIDE]	98.34	109.5
C[C@H]1C[C@H]2[C@@H]3CCC4=CC(=O)C=C[C@]4(C)[C@@]3(F)[C@@H](O)C[C@]2(C)[C@@]1(O)C(=O)CO [BETAMETHASONE]	102.7	76.17
COc1cc2nc(N3CCN(C(=O)c4ccco4)CC3)nc(N)c2cc1OC.Cl [PRAZOSIN HYDROCHLORIDE]	90.48	99.58
CC(C)c1c(O)ccc2c1CC[C@H]1C(C)(C)CCC[C@]21C [TOTAROL]	131.3	159.4
COc1cc2c(cc1OC)-c1c(oc3c4c(ccc3c1=O)OC(C(C)C)C4)CO2 (centres undefined) [DEHYDRODIHYDROROTENONE]	95.69	89.82
Cc1c(C)c2c(c(C)c1O)CCC(C)(CCCC(C)CCCC(C)CCCC(C)C)O2 (stereo not drawn) [alpha-TOCHOPHEROL]	84.17	85.48
NS(=O)(=O)c1cc2c(cc1Cl)NCNS2(=O)=O [HYDROCHLOROTHIAZIDE]	82.24	68.94
COc1cc(O)c2c(=O)c(O)c(-c3ccc(O)c(O)c3)oc2c1 [RHAMNETIN]	99.02	90.81
Nc1nc(N)c2nc(-c3ccccc3)c(N)nc2n1	69.61	78.63
C=CC(C1=CC(=O)C=CC1=O)c1ccccc1 (centres undefined) [DALBERGIONE]	269.8	72.19
O=C(Cc1ccccc1)NO [PHENYLACETOHYDROXAMIC ACID]	75.25	58.46
CCCCCCCCCCCCCCCCOP(=O)([O-])OCC[N+](C)(C)C [MILTEFOSINE]	93.25	89.28
O=C1NS(=O)(=O)c2ccccc21 [SACCHARIN]	110.9	112.4
CC12CCC3C(CC3(C)C)C(C)(CCC1=O)O2 (centres undefined) [3,7-EPOXYCARYOPHYLLAN-6-ONE]	93.4	72.4
COc1cc(O)ccc1C(C)=O [ISOPEONOL]	84.87	60.41
CCCCSP(=O)(SCCCC)SCCCC [S,S,S,-TRIBUTYLPHOSPHOROTRITHIOATE]	111.8	125.7
COc1ccccc1/C=C/C(=O)O [COUMARINIC ACID METHYL ETHER]	119.3	110.4
COC(=O)c1c(C)cc(OC(=O)c2c(C)cc(O)c(C=O)c2O)c(C)c1O [ATRANORIN]	109.7	122.9
Br.COc1c2c(cc3c1OCO3)CCN(C)C2 [HYDROCOTARNINE HYDROBROMIDE]	89.75	99.81
CCCC(C)C1(CC)C(=O)[N-]C(=S)NC1=O.[Na+] (centres undefined) [THIOPENTAL SODIUM]	84.51	73.02
